# Results reported in US20250255867A1 (Kadmon Corporation, LLC, priority 2022, published 2025).
# System: patients with cGVHD
# Test: Example 1: pulmonary function (percent predicted FEV1, FVC, DLco, TLC, RV) change from baseline
# Assay type: in vivo, human
# Method: Change From Baseline in Percent Predicted Forced Expiratory Volume in 1 Second (FEV1) at Each Specified Time Points. FEV1 was the volume of air exhaled from the lungs in the first second of a forced expiration as measured by spirometer. Baseline value was defined as valid and last non-missing value obtained within 28 days prior to participant receiving first study medication. EOT visit was performed within 3 days after the participant's last dose of study drug. […] Analysis was performed on mITT population. Here, ‘number analyzed’=participants with available data for each specified category. Here, ‘0’ in the number analyzed field signifies that none of the participants were available for the analysis at the specified time points.
# Change From Baseline in Percent Predicted Forced Vital Capacity (FVC) at Each Specified Time Points. FVC was the total amount of air (in liters) exhaled from the lungs during the lung function test measured by spirometer which assessed the change in lung function related to the disease status. Baseline value was defined as valid and last non-missing value obtained within 28 days prior to participant receiving first study medication. EOT visit was performed within 3 days after the participant's last dose of study drug. […] Analysis was performed on mITT population. Here, ‘number analyzed’=participants with available data for each specified category. Here, ‘0’ in the number analyzed field signifies that none of the participants were available for the analysis at the specified time points.
# Change From Baseline in Percent Predicted Hemoglobin (HGB) Corrected Diffusing Capacity of Lung for Carbon Monoxide (DLco) at Each Specified Time Points. DLco is a measurement of the ability of the lungs to transfer gases from the air to the blood. Change from baseline in diffusing capacity of the lung for carbon monoxide (percent predicted hemoglobin level corrected) was reported for this measure. Baseline value was defined as valid and last non-missing value obtained within 28 days prior to participant receiving first study medication. EOT visit was performed within 3 days after the participant's last dose of study drug. […] Analysis was performed on mITT population. Here, ‘number analyzed’=participants with available data for each specified category. Here, ‘0’ in the number analyzed field signifies that none of the participants were available for the analysis at the specified time points.
# Change From Baseline in Percent Predicted Total Lung Capacity (TLC) at Each Specified Time Points. TLC is the volume of air in the lungs upon the maximum effort of inspiration. Baseline value was defined as valid and last non-missing value obtained within 28 days prior to participant receiving first study medication. EOT visit was performed within 3 days after the participant's last dose of study drug. […] Analysis was performed on mITT population. Here, ‘number analyzed’=participants with available data for each specified category.
smiles,measurement,setting,value
"CC(C)NC(=O)COc1cccc(-c2nc(Nc3ccc4[nH]ncc4c3)c3ccccc3n2)c1 [Belumosudil, 2-{3-[4-(1H-indazol-5-ylamino)-2-quinazolinyl]phenoxy}-N-(propan-2-yl) acetamide]","Change From Baseline in Percent Predicted Residual Volume (RV), Mean (Standard Deviation)","Cohort 2: 200 mg BID, Cycle 13, Day 1, n=4",−27.0 (35.6) percent predicted RV
same,"Change From Baseline in Percent Predicted Residual Volume (RV), Mean (Standard Deviation)","Cohort 2: 200 mg BID, Cycle 14, Day 1, n=1",−31.0 (—) percent predicted RV
same,"Change From Baseline in Percent Predicted Residual Volume (RV), Mean (Standard Deviation)","Cohort 2: 200 mg BID, Cycle 15, Day 1, n=3",−0.7 (18.1) percent predicted RV
same,"Change From Baseline in Percent Predicted Residual Volume (RV), Mean (Standard Deviation)","Cohort 2: 200 mg BID, Cycle 16, Day 1, n=2",−36.5 (13.4) percent predicted RV
same,"Change From Baseline in Percent Predicted Residual Volume (RV), Mean (Standard Deviation)","Cohort 2: 200 mg BID, Cycle 17, Day 1, n=3",−47.3 (25.1) percent predicted RV
same,"Change From Baseline in Percent Predicted Residual Volume (RV), Mean (Standard Deviation)","Cohort 2: 200 mg BID, Cycle 18, Day 1, n=2",−42.0 (0.0) percent predicted RV
same,"Change From Baseline in Percent Predicted Residual Volume (RV), Mean (Standard Deviation)","Cohort 2: 200 mg BID, Cycle 19, Day 1, n=3",−19.7 (18.0) percent predicted RV
same,"Change From Baseline in Percent Predicted Residual Volume (RV), Mean (Standard Deviation)","Cohort 2: 200 mg BID, Cycle 20, Day 1, n=2",−7.5 (37.5) percent predicted RV
same,"Change From Baseline in Percent Predicted Residual Volume (RV), Mean (Standard Deviation)","Cohort 2: 200 mg BID, Cycle 21, Day 1, n=1",−44.0 (—) percent predicted RV
same,"Change From Baseline in Percent Predicted Residual Volume (RV), Mean (Standard Deviation)","Cohort 2: 200 mg BID, Cycle 22, Day 1, n=2",−33.0 (19.8) percent predicted RV
same,"Change From Baseline in Percent Predicted Residual Volume (RV), Mean (Standard Deviation)","Cohort 2: 200 mg BID, Cycle 23, Day 1, n=1",−72.0 (—) percent predicted RV
same,"Change From Baseline in Percent Predicted Residual Volume (RV), Mean (Standard Deviation)","Cohort 2: 200 mg BID, Cycle 24, Day 1, n=1",−17.0 (—) percent predicted RV
same,"Change From Baseline in Percent Predicted Residual Volume (RV), Mean (Standard Deviation)","Cohort 2: 200 mg BID, Cycle 25, Day 1, n=2",−34.0 (31.1) percent predicted RV
same,"Change From Baseline in Percent Predicted Residual Volume (RV), Mean (Standard Deviation)","Cohort 2: 200 mg BID, Cycle 27, Day 1, n=2",−39.5 (20.5) percent predicted RV
same,"Change From Baseline in Percent Predicted Residual Volume (RV), Mean (Standard Deviation)","Cohort 2: 200 mg BID, Cycle 29, Day 1, n=1",−13.0 (—) percent predicted RV
same,"Change From Baseline in Percent Predicted Residual Volume (RV), Mean (Standard Deviation)","Cohort 2: 200 mg BID, Cycle 37, Day 1, n=1",−70.0 (—) percent predicted RV
same,"Change From Baseline in Percent Predicted Residual Volume (RV), Mean (Standard Deviation)","Cohort 2: 200 mg BID, Cycle 39, Day 1, n=2",−43.0 (42.4) percent predicted RV
same,"Change From Baseline in Percent Predicted Residual Volume (RV), Mean (Standard Deviation)","Cohort 2: 200 mg BID, Cycle 43, Day 1, n=1",−26.0 (—) percent predicted RV
same,"Change From Baseline in Percent Predicted Residual Volume (RV), Mean (Standard Deviation)","Cohort 2: 200 mg BID, EOT, n=8",10.6 (34.9) percent predicted RV
same,"Change From Baseline in Percent Predicted Residual Volume (RV), Mean (Standard Deviation)","Cohort 3: 400 mg QD, Cycle 2, Day 1, n=4",−18.0 (30.1) percent predicted RV
same,"Change From Baseline in Percent Predicted Residual Volume (RV), Mean (Standard Deviation)","Cohort 3: 400 mg QD, Cycle 3, Day 1, n=12",9.0 (34.4) percent predicted RV
same,"Change From Baseline in Percent Predicted Residual Volume (RV), Mean (Standard Deviation)","Cohort 3: 400 mg QD, Cycle 4, Day 1, n=6",17.8 (29.0) percent predicted RV
same,"Change From Baseline in Percent Predicted Residual Volume (RV), Mean (Standard Deviation)","Cohort 3: 400 mg QD, Cycle 5, Day 1, n=10",−3.7 (29.8) percent predicted RV
same,"Change From Baseline in Percent Predicted Residual Volume (RV), Mean (Standard Deviation)","Cohort 3: 400 mg QD, Cycle 6, Day 1, n=7",−10.9 (37.5) percent predicted RV
same,"Change From Baseline in Percent Predicted Residual Volume (RV), Mean (Standard Deviation)","Cohort 3: 400 mg QD, Cycle 7, Day 1, n=12",−7.5 (33.0) percent predicted RV
same,"Change From Baseline in Percent Predicted Residual Volume (RV), Mean (Standard Deviation)","Cohort 3: 400 mg QD, Cycle 8, Day 1, n=6",2.5 (39.7) percent predicted RV
same,"Change From Baseline in Percent Predicted Residual Volume (RV), Mean (Standard Deviation)","Cohort 3: 400 mg QD, Cycle 9, Day 1, n=10",0.1 (35.6) percent predicted RV
same,"Change From Baseline in Percent Predicted Residual Volume (RV), Mean (Standard Deviation)","Cohort 3: 400 mg QD, Cycle 10, Day 1, n=5",1.4 (38.2) percent predicted RV
same,"Change From Baseline in Percent Predicted Residual Volume (RV), Mean (Standard Deviation)","Cohort 3: 400 mg QD, Cycle 11, Day 1, n=8",5.4 (38.0) percent predicted RV
same,"Change From Baseline in Percent Predicted Residual Volume (RV), Mean (Standard Deviation)","Cohort 3: 400 mg QD, Cycle 12, Day 1, n=6",−22.2 (49.9) percent predicted RV
same,"Change From Baseline in Percent Predicted Residual Volume (RV), Mean (Standard Deviation)","Cohort 3: 400 mg QD, Cycle 13, Day 1, n=8",0.3 (32.6) percent predicted RV
same,"Change From Baseline in Percent Predicted Residual Volume (RV), Mean (Standard Deviation)","Cohort 3: 400 mg QD, Cycle 14, Day 1, n=6",−6.5 (36.3) percent predicted RV
same,"Change From Baseline in Percent Predicted Residual Volume (RV), Mean (Standard Deviation)","Cohort 3: 400 mg QD, Cycle 15, Day 1, n=7",−16.7 (22.3) percent predicted RV
same,"Change From Baseline in Percent Predicted Residual Volume (RV), Mean (Standard Deviation)","Cohort 3: 400 mg QD, Cycle 16, Day 1, n=4",−27.5 (31.9) percent predicted RV
same,"Change From Baseline in Percent Predicted Residual Volume (RV), Mean (Standard Deviation)","Cohort 3: 400 mg QD, Cycle 17, Day 1, n=7",−39.1 (26.2) percent predicted RV
same,"Change From Baseline in Percent Predicted Residual Volume (RV), Mean (Standard Deviation)","Cohort 3: 400 mg QD, Cycle 18, Day 1, n=3",−7.3 (33.7) percent predicted RV
same,"Change From Baseline in Percent Predicted Residual Volume (RV), Mean (Standard Deviation)","Cohort 3: 400 mg QD, Cycle 19, Day 1, n=4",−23.5 (18.7) percent predicted RV
same,"Change From Baseline in Percent Predicted Residual Volume (RV), Mean (Standard Deviation)","Cohort 3: 400 mg QD, Cycle 20, Day 1, n=3",−22.0 (44.3) percent predicted RV
same,"Change From Baseline in Percent Predicted Residual Volume (RV), Mean (Standard Deviation)","Cohort 3: 400 mg QD, Cycle 21, Day 1, n=5",−30.2 (51.2) percent predicted RV
same,"Change From Baseline in Percent Predicted Residual Volume (RV), Mean (Standard Deviation)","Cohort 3: 400 mg QD, Cycle 22, Day 1, n=2",−41.0 (46.7) percent predicted RV
same,"Change From Baseline in Percent Predicted Residual Volume (RV), Mean (Standard Deviation)","Cohort 3: 400 mg QD, Cycle 23, Day 1, n=4",1.5 (44.8) percent predicted RV
same,"Change From Baseline in Percent Predicted Residual Volume (RV), Mean (Standard Deviation)","Cohort 3: 400 mg QD, Cycle 24, Day 1, n=1",−78.0 (—) percent predicted RV
same,"Change From Baseline in Percent Predicted Residual Volume (RV), Mean (Standard Deviation)","Cohort 3: 400 mg QD, Cycle 25, Day 1, n=3",−23.3 (56.0) percent predicted RV
same,"Change From Baseline in Percent Predicted Residual Volume (RV), Mean (Standard Deviation)","Cohort 3: 400 mg QD, Cycle 27, Day 1, n=2",−41.0 (28.3) percent predicted RV
same,"Change From Baseline in Percent Predicted Residual Volume (RV), Mean (Standard Deviation)","Cohort 3: 400 mg QD, Cycle 29, Day 1, n=2",17.5 (40.3) percent predicted RV
same,"Change From Baseline in Percent Predicted Residual Volume (RV), Mean (Standard Deviation)","Cohort 3: 400 mg QD, Cycle 39, Day 1, n=1",81.0 (—) percent predicted RV
same,"Change From Baseline in Percent Predicted Residual Volume (RV), Mean (Standard Deviation)","Cohort 3: 400 mg QD, Cycle 43, Day 1, n=1",75.0 (—) percent predicted RV
same,"Change From Baseline in Percent Predicted Residual Volume (RV), Mean (Standard Deviation)","Cohort 3: 400 mg QD, Cycle 47, Day 1, n=1",87.0 (—) percent predicted RV
same,"Change From Baseline in Percent Predicted Residual Volume (RV), Mean (Standard Deviation)","Cohort 3: 400 mg QD, Cycle 49, Day 1, n=1",−5.0 (—) percent predicted RV
same,"Change From Baseline in Percent Predicted Residual Volume (RV), Mean (Standard Deviation)","Cohort 3: 400 mg QD, EOT, n=8",−18.5 (32.6) percent predicted RV
